Assay results taken from patent EP2758383B1, “AROMATIC AMIDOTHIAZOLES, COSMETIC AND DERMATOLOGICAL PREPARATIONS CONTAINING THEM, AND THEIR USE FOR THE TREATMENT AND PROPHYLAXIS OF UNWANTED PIGMENTATION OF THE SKIN” (priority 2011, dated 2013).
Where two headings read alike, the source gives them in different places.

Target: T1, humane Tyrosinase (Homo sapiens, UniProt P14679)
T1 sequence (P14679 19-529): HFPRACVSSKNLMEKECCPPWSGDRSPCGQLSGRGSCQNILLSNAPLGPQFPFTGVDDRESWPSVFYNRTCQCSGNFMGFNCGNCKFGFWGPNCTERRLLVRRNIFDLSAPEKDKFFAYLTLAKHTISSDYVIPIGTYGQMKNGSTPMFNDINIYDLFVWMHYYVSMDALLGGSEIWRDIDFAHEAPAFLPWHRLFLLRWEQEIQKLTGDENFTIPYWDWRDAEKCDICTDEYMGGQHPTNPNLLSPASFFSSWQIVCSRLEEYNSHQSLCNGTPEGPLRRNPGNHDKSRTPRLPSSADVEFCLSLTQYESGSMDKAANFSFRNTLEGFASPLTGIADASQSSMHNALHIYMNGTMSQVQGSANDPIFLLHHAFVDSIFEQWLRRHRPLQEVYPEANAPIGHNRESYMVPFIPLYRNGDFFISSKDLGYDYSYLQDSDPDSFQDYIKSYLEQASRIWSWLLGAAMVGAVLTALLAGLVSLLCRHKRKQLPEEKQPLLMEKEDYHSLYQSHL
Test: Enzyme test: conversion of L-DOPA to L-dopaquinone by human tyrosinase, MBTH detection, absorption at 490 nm
Format: biochemical
Conditions: read-out: Inhibition (% der Kontrolle)

[1] = Konzentration 10 µg/mL, substrate L-DOPA

Description: Die Wirksamkeit der Thiazole wurde mit einem Enzymtest belegt, in der Umsatz von L-DOPA zu L-Dopachinon durch eine humane Tyrosinase gemessen wurde.

`O=C(Nc1nc(-c2ccc(O)cc2O)cs1)c1ccccc1` [N-(4-(2,4-dihydroxyphenyl)thiazol-2-yl)benzamid] was tested, and the inhibition at 10 µg/mL [1] was 98%.
`O=C(Nc1nc(-c2ccc(O)cc2O)cs1)c1ccc(CO)cc1` [N-(4-(2,4-dihydroxyphenyl)thiazol-2-yl)-4-(hydroxymethyl)benzamid] showed an inhibition at 10 µg/mL [1] of 99%.
Compound `c1ccc(Nc2nc(-c3ccncc3)cs2)nc1` [N-(pyridin-2-yl)-4-(pyridin-4-yl)thiazol-2-amin, reference compound] has an inhibition at 10 µg/mL [1] of 16%.
`O=C(Nc1nc(-c2ccc(O)cc2O)cs1)c1ccc(CO)nc1` [N-(4-(2,4-dihydroxyphenyl)thiazol-2-yl)-6-(hydroxymethyl)nicotinamid] gave an inhibition at 10 µg/mL [1] of 98%.
For `CC(=O)c1ccc(C(=O)Nc2nc(-c3ccc(O)cc3O)cs2)cc1` [4-acetyl-N-(4-(2,4-dihydroxyphenyl)thiazol-2-yl)benzamid], the inhibition at 10 µg/mL [1] was 92%.
`C=CCN(C1=NC(C)(C)C(=C)S1)c1ccc(C)cc1C` [N-allyl-N-(2,4-dimethylphenyl)-4,4-dimethyl-5-methylene-4,5-dihydrothiazol-2-amin, reference compound] showed an inhibition at 10 µg/mL [1] of 13%.
`O=C(Nc1nc(-c2ccc(O)cc2O)cs1)c1ccccn1` [N-(4-(2,4-dihydroxyphenyl)thiazol-2-yl)picolinamid] showed an inhibition at 10 µg/mL [1] of 82%.
Work on `CN(c1ccccc1)c1nc(-c2ccncc2)cs1` [N-methyl-N-phenyl-4-(pyridin-4-yl)thiazol-2-amin, reference compound] yielded an inhibition at 10 µg/mL [1] of 13%.
`N#Cc1ccc(C(=O)Nc2nc(-c3ccc(O)cc3O)cs2)cc1` [4-cyano-N-(4-(2,4-dihydroxyphenyl)thiazol-2-yl)benzamid] showed an inhibition at 10 µg/mL [1] of 96%.
`O=C(Nc1nc(-c2ccc(O)cc2O)cs1)c1ccc2c(c1)OCO2` [N-(4-(2,4-dihydroxyphenyl)thiazol-2-yl)benzo[d][1,3]dioxole-5-carboxamide] was tested, and the inhibition at 10 µg/mL [1] was 92%.
For `CC(C)(O)c1ccc(C(=O)Nc2nc(-c3ccc(O)cc3O)cs2)cc1` [N-(4-(2,4-dihydroxyphenyl)thiazol-2-yl)-4-(2-hydroxypropan-2-yl)benzamid], the inhibition at 10 µg/mL was 96%.
`CC(C)(C)c1ccc(C(=O)Nc2nc(-c3ccc(O)cc3O)cs2)cc1` [4-(tert-butyl)-N-(4-(2,4-dihydroxyphenyl)thiazol-2-yl)benzamid] showed an inhibition at 10 µg/mL [1] of 27%.
